Test results from patent publication US4130647A, “Methods for treating congestive heart failure and ischemic heart disease” (priority 1977, dated 1978).
Values joined by “and” are separate entries in the source; they are usually repeats but may differ in a detail not shown here. Equal entries are not always repeated. Where two headings read alike, the source gives them in different places.

Columns and labels:
patients [1] = test system: patients; parameters: species or system human; details: in vivo
Source text: A finding of major importance which emerged from this investigation concerns the relative effects of prazosin on both venous and arteriolar smooth muscle. Prazosin is used clinically as an antihypertensive agent and the arterial dilating actions have been confirmed previously in experimental studies [Cohen, et al., J. Clin. Pharmacol., 10, 408 (1970)]. The important finding delineated herein that prazosin also effects substantial venodilation was of considerable physiologic significance since this unique action on systemic veins allows salutory extension of oral prazosin to the ambulatory therapy of chronic congestive heart failure. In this regard, in patients with normal left ventricular filling pressures, the prazosin-induced venous pooling and decline in cardiac return may lower ventricular preload to such a degree that the point of operation of the ventricle on the Frank-Starling relation is shifted substantially downward and to the left on its ascending limb with resultant decline in cardiac output despite lowered impedance. Furthermore, in the case of prazosin, the attenuation of reflex tachycardia by the agent in this circumstance of lowered stroke volume because of low preload, inhibits the principal regulatory mechanism which would otherwise compensate for the lowered stroke volume. […]

[2] = test system: enzyme phosphodiesterase in vascular smooth muscle; details: cited from earlier work
[3] = test system: forearm blood flow, vascular resistance and venous tone of patients with heart failure; details: for forearm blood flow: control 1.29 ± 0.14; for forearm vascular resistance: control 88.9 ± 13.8
patients [4] = details: cited from earlier work
[5] = test system: contractile state of the heart; details: experimental studies; cited from earlier work
[6] = test system: patients who had severe ischemic cardiomyopathy and heart failure; assay: Hemodynamic effects of oral prazosin in congestive heart failure (Example 1); assay type: in vivo, human; details: for pressure.time per minute (index of myocardial oxygen demand): control 3293 ± 191
Source text: The study comprised ten patients, six males and four females, mean age 51 years (range 46 to 62 years) who had severe ischemic cardiomyopathy and heart failure documented in each by cardiac catheterization and coronary arteriography. The duration of heart failure symptoms ranged from one to six years. All patients were receiving digoxin and diuretics, while seven were also taking long-acting nitrate preparations for the chronic unloading effects of these agents, Williams, et al., Am. J. Cardiol., 39, 84 (1977) and Amsterdam, et al., Circulation, 52 [Suppl. 2] 150 (1975).
Left ventriculography confirmed extensive abnormalities of segmental contraction in the appropriate area in each patient and the mean ejection fraction for this group of patients was 0.18 ± 0.03 (SEM). […] The remaining two patients were clinically functional class IV with resting dyspnea and were not able to undergo exercise evaluation.
Hemodynamics: All patients were studied in the post-absorptive state; and informed consent was obtained in each. All cardiac medications including digoxin, diuretics and long-acting nitrates were withheld for at least 24 hours prior to study.
Systemic arterial pressure was measured directly through an intra-arterial Teflon catheter placed into a brachial artery. Right atrial (RA), pulmonary artery (PA) and pulmonary artery wedge (PAW) pressures, and cardiac output (CO) by thermodilution were recorded with the Swan-Ganz catheter. Cardiac outputs were performed in triplicate (less than 10 percent variation) utilizing iced-water and computations were accomplished by a bed-side computer (Santa Barbara, Technology, Inc., Santa Barbara, Calif.).
Derived hemodynamic variables were calculated as follows: stroke work index (SWI) in gm-m/M^2 = SI × (AP-LVFP) × 0.0136 here SI = stroke index, AP = mean systemic arterial pressure and LVFP = left ventricular filling pressure either as the mean PAW or PA diastolic pressure, the particular method utilized for this variable remaining constant throughout the study for each patient; total systemic vascular resistance (TSVR) = 80 [(AP-RA)/CO] where 80 converts mm. Hg. to dynes sec. cm.^-5 and RA = mean RA pressure; pressure.time per minute (PTM) in mm. Hg. sec. per minute = AP × ET × HR where ET = left ventricular ejection time and HR = heart rate.

[7] = one hour post prazosin vs. control
[8] = 1 hour post prazosin, individual patients
[9] = 60 minutes post prazosin vs. control
[10] = 3 hours post prazosin, group mean
[11] = 3 hours post prazosin, individual patients
[12] = 6 hours post prazosin, group mean
[13] = 6 hours post prazosin, individual patients

**Q.** What does the source list for `COc1cc2nc(N3CCN(C(=O)c4ccco4)CC3)nc(N)c2cc1OC` [prazosin]?
**A.** syncope or other untoward effects (patients [1]): no syncope or other untoward effects occurred; cyclic GMP ([2]; myocardium): increased levels of cyclic GMP; cyclic AMP ([2]; vascular smooth muscle): accumulation of cyclic AMP; inhibition of phosphodiesterase ([2]; vascular smooth muscle): inhibition of the enzyme phosphodiesterase; forearm vascular resistance, patients responding ([3]; 30 minutes post prazosin): lowered by prazosin in all patients; ratio of percent reduction of forearm vascular resistance to percent decline in forearm venous tone ([3]; 30 minutes post prazosin): 0.49; change in forearm venous tone ([3]; 30 minutes post prazosin vs. control): -69%; forearm blood flow ([3]; 30 minutes post prazosin): 1.71 ± 0.25 ml./100 gm./minute; venous tone in the forearm ([3]; 30 minutes post prazosin, control 58.9 ± 13.8): 18.5 ± 3.9 ml./mm. Hg.; forearm vascular resistance ([3]; 30 minutes post prazosin): 58.4 ± 6.1 mm. Hg./ml./100 gm./min.; ratio of percent reduction of forearm vascular resistance to percent decline in forearm venous tone ([3]; 1 hour post prazosin): 0.67; forearm blood flow ([3]; 60 minutes post prazosin): 1.95 ± 0.33 ml./100 gm./minute; persistence of increase in forearm blood flow ([3]; 6 hours): remained increased for the entire 6 hours; change in forearm vascular resistance [3, 7]: -47%; forearm vascular resistance ([3]; one hour post prazosin): 47.9 ± 5.8 mm. Hg./ml./100 gm./min.; persistence of decline in forearm vascular resistance ([3]; six hours): persisted for the six hour study period; persistence of lowering of forearm venous tone ([3]; six hours): remained lowered at this level for the entire six hour observation period; tolerability in long-term administration (patients [4]; hypertensive patients): relatively well tolerated; excessive hypotension (patients [4]; in vivo): reported to occasionally occur; serologic side effects resembling hydralazine-induced lupus erythematosus (patients [4]; in vivo): no reports of serologic side effects; febrile polyarthritis (patients [4]; patient receiving prazosin for hypertension): reported in a single patient; effects on the contractile state of the heart [5]: neither direct nor sympathetically mediated indirect effects; cardiac index, patients responding ([6]; 30 minutes post prazosin): increased in each patient; left ventricular filling pressure, patients responding ([6]; 30 minutes post prazosin): lowered in all 10 patients; Cardiac Index ([6]; 30 minutes post prazosin, group mean, control 2.07 ± 0.12): 2.62 ± 0.11 L/min./M^2; total systemic vascular resistance ([6]; 30 minutes post prazosin, group mean, control 2074 ± 183): 1448 ± 139 dynes sec. cm.^-5; stroke work index, direction of change ([6]; 30 minutes post prazosin, p<0.01): increased; Mean Systemic Arterial Pressure ([6]; 30 minutes post prazosin, control 95.3 ± 5.3): 86.1 ± 5.8 mm. Hg.; pressure.time per minute (index of myocardial oxygen demand) ([6]; 30 minutes post prazosin): 2992 ± 208 mm. Hg. sec. per minute; CI (cardiac index), mean ([6]; 1 hour (60 minutes) post prazosin, group mean, control 2.07): 2.94 ± 0.10 L/min./M^2 and 2.9 L/min./M^2; SWI (stroke work index), mean ([6]; 1 hour (60 minutes) post prazosin, group mean, control 23.3): 31.4 ± 5.1 gm.-m/M^2 and 31.4 gm.-m/M^2; LVFP (left ventricular filling pressure), mean ([6]; 1 hour (60 minutes) post prazosin, group mean, control 30.2): 17.7 ± 1.4 mm. Hg. and 17.7 mm. Hg.; HR (heart rate), mean ([6]; 1 hour post prazosin, group mean, control 84): 84 beats per minute; AP (mean systemic arterial pressure), mean ([6]; 1 hour post prazosin, group mean, control 95.3): 77.8 mm. Hg.; TSVR (total systemic vascular resistance), mean ([6]; 1 hour post prazosin, group mean, control 2074): 1156 ± 83 dynes sec. cm.^-5 and 1156 dynes sec. cm.^-5; AP (mean systemic arterial pressure) [6, 8]: 86 mm. Hg. and 62 mm. Hg. and 92 mm. Hg. and 69 mm. Hg. and 91 mm. Hg. and 77 mm. Hg. and 67 mm. Hg. and 64 mm. Hg. and 60 mm. Hg. and 110 mm. Hg.; CI (cardiac index) [6, 8]: 2.9 L/min./M^2 and 2.8 L/min./M^2 and 3.2 L/min./M^2 and 2.6 L/min./M^2 and 3.1 L/min./M^2 and 2.5 L/min./M^2 and 3.5 L/min./M^2; LVFP (left ventricular filling pressure) [6, 8]: 16 mm. Hg. and 19 mm. Hg. and 25 mm. Hg. and 11 mm. Hg. and 12 mm. Hg. and 18 mm. Hg. and 24 mm. Hg. and 21 mm. Hg. and 20 mm. Hg. and 13 mm. Hg.; SWI (stroke work index) [6, 8]: 41 gm.-m/M^2 and 23 gm.-m/M^2 and 34 gm.-m/M^2 and 24 gm.-m/M^2 and 44 gm.-m/M^2 and 29 gm.-m/M^2 and 17 gm.-m/M^2 and 15 gm.-m/M^2 and 20 gm.-m/M^2 and 68 gm.-m/M^2; TSVR (total systemic vascular resistance) [6, 8]: 1445 dynes sec. cm.^-5 and 1038 dynes sec. cm.^-5 and 1067 dynes sec. cm.^-5 and 920 dynes sec. cm.^-5 and 1549 dynes sec. cm.^-5 and 1011 dynes sec. cm.^-5 and 1477 dynes sec. cm.^-5 and 908 dynes sec. cm.^-5 and 836 dynes sec. cm.^-5 and 1304 dynes sec. cm.^-5; HR (heart rate) ([6]; 1 hour post prazosin, oral 2 to 5 mg (one patient 7 mg), individual patients 1-10): 66 beats per minute and 72 beats per minute and 90 beats per minute and 105 beats per minute and 62 beats per minute and 87 beats per minute and 86 beats per minute and 102 beats per minute; change in cardiac index (maximal increase) [6, 9]: +42%; change in left ventricular filling pressure [6, 9]: -41%; change in stroke work index (peak) [6, 9]: +35%; AP (mean systemic arterial pressure), mean [6, 10]: 78.6 mm. Hg.; CI (cardiac index), mean [6, 10]: 2.7 L/min./M^2; HR (heart rate), mean [6, 10]: 81 beats per minute; LVFP (left ventricular filling pressure), mean [6, 10]: 17.9 mm. Hg.; SWI (stroke work index), mean [6, 10]: 28.7 gm.-m/M^2; TSVR (total systemic vascular resistance), mean [6, 10]: 1303 dynes sec. cm.^-5; AP (mean systemic arterial pressure) [6, 11]: 79 mm. Hg. and 67 mm. Hg. and 90 mm. Hg. and 72 mm. Hg. and 80 mm. Hg. and 77 mm. Hg. and 68 mm. Hg. and 69 mm. Hg. and 104 mm. Hg.; CI (cardiac index) [6, 11]: 3.1 L/min./M^2 and 2.4 L/min./M^2 and 2.0 L/min./M^2 and 2.9 L/min./M^2 and 2.3 L/min./M^2 and 2.8 L/min./M^2 and 3.3 L/min./M^2 and 2.5 L/min./M^2; HR (heart rate) [6, 11]: 66 beats per minute and 70 beats per minute and 85 beats per minute and 100 beats per minute and 61 beats per minute and 72 beats per minute and 112 beats per minute and 80 beats per minute and 99 beats per minute; LVFP (left ventricular filling pressure) [6, 11]: 21 mm. Hg. and 23 mm. Hg. and 14 mm. Hg. and 11 mm. Hg. and 20 mm. Hg. and 22 mm. Hg. and 25 mm. Hg. and 18 mm. Hg. and 16 mm. Hg.; SWI (stroke work index) [6, 11]: 45 gm.-m/M^2 and 25 gm.-m/M^2 and 32 gm.-m/M^2 and 22 gm.-m/M^2 and 36 gm.-m/M^2 and 26 gm.-m/M^2 and 16 gm.-m/M^2 and 17 gm.-m/M^2 and 24 gm.-m/M^2 and 44 gm.-m/M^2; TSVR (total systemic vascular resistance) [6, 11]: 1222 dynes sec. cm.^-5 and 1307 dynes sec. cm.^-5 and 1125 dynes sec. cm.^-5 and 1069 dynes sec. cm.^-5 and 1484 dynes sec. cm.^-5 and 1294 dynes sec. cm.^-5 and 1850 dynes sec. cm.^-5 and 1135 dynes sec. cm.^-5 and 840 dynes sec. cm.^-5 and 1708 dynes sec. cm.^-5; persistence of reduction of pressure.time per minute ([6]; 6 hours): remained diminished for 6 hours; persistence of reduction of total systemic vascular resistance ([6]; 6 hours): significant (p<0.001) reduction in TSVR persisted for the entire 6 hour observation; AP (mean systemic arterial pressure), mean [6, 12]: 86.0 mm. Hg.; CI (cardiac index), mean [6, 12]: 2.4 L/min./M^2; HR (heart rate), mean [6, 12]: 75 beats per minute; LVFP (left ventricular filling pressure), mean [6, 12]: 19.7 mm. Hg.; SWI (stroke work index), mean [6, 12]: 29.9 gm.-m/M^2; TSVR (total systemic vascular resistance), mean [6, 12]: 1639 dynes sec. cm.^-5; AP (mean systemic arterial pressure) [6, 13]: 75 mm. Hg. and 80 mm. Hg. and 100 mm. Hg. and 102 mm. Hg. and 85 mm. Hg. and 74 mm. Hg.; CI (cardiac index) [6, 13]: 3.1 L/min./M^2 and 2.4 L/min./M^2 and 2.6 L/min./M^2 and 2.2 L/min./M^2 and 2.1 L/min./M^2; HR (heart rate) [6, 13]: 70 beats per minute and 72 beats per minute and 90 beats per minute and 56 beats per minute and 78 beats per minute and 86 beats per minute; LVFP (left ventricular filling pressure) [6, 13]: 13 mm. Hg. and 20 mm. Hg. and 23 mm. Hg. and 15 mm. Hg. and 18 mm. Hg. and 29 mm. Hg.; SWI (stroke work index) [6, 13]: 38 gm.-m/M^2 and 27 gm.-m/M^2 and 30 gm.-m/M^2 and 45 gm.-m/M^2 and 25 gm.-m/M^2 and 15 gm.-m/M^2; TSVR (total systemic vascular resistance; head TSVB) [6, 13]: 1158 dynes sec. cm.^-5 and 1550 dynes sec. cm.^-5 and 1455 dynes sec. cm.^-5 and 2066 dynes sec. cm.^-5 and 1638 dynes sec. cm.^-5 and 1973 dynes sec. cm.^-5; persistence of reduction of left ventricular filling pressure ([6]; entire study period): remained significantly (p<0.001) reduced throughout the entire study period; total systemic vascular resistance, patients responding ([6]; following prazosin): reduced in each patient; change in heart rate ([6]; following prazosin, control 84 ± 5.1 beats per minute, p>0.05): not statistically different; change in pressure.time per minute [6, 7]: -15%; change in total systemic vascular resistance [6, 7]: -44; pressure.time per minute (index of myocardial oxygen demand) ([6]; one hour post prazosin): 2793 ± 188 mm. Hg. sec. per minute; response in systemic blood pressure or left ventricular filling pressure ([6]; one patient, 2 hours following first dose): no alteration in systemic blood pressure or left ventricular filling pressure; persistence of increase in cardiac index ([6]; six hours vs. control): remaining significantly (p<0.01) elevated at six hours; persistence of lowering of mean systemic arterial pressure ([6]; throughout the observation period): remained significantly (p<0.001 or p<0.01) lowered throughout the observation period; change in mean systemic arterial pressure ([6]; two hours post prazosin vs. control): -20%; mean systemic arterial pressure, maximal hypotensive effect ([6]; two hours post prazosin, control 95.3 ± 5.3): 76.2 ± 3.8 mm. Hg.
